Reference: PubChem BioAssay AID330 (DTP/NCI, 2004)
Several values for one entry are separate records, joined by “and”; a condition that tells them apart may be missing. Equal entries are not always repeated. Toxic doses and inconclusive results are not listed.

Tested on: P388 leukemia ip, CD2F1 mice, survival T/C
Experiment: NCI In Vivo Anticancer Drug Screen. Data for tumor model P388 Leukemia (intraperitoneal) in CD2F1 (CDF1) mice
Conditions: endpoint: median survival time, higher = longer survival
Method in brief: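 Mice carrying the transplanted tumor received test compound or vehicle. Survival was recorded in each group, and the value is the treated-group measurement divided by that of the vehicle-treated control group.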

[1] = dose: 100.0 mg/kg/injection, schedule: Q04DX003 (ip), vehicle: saline with Tween-80
[2] = dose: 50.0 mg/kg/injection, schedule: Q01DX005 (ip), vehicle: Klucel (hydroxypropylcellulose) (HPC)
[3] = dose: 50.0 mg/kg/injection, schedule: Q01DX009 (ip), vehicle: saline with Tween-80
[4] = dose: 100.0 mg/kg/injection, schedule: Q01DX009 (ip), vehicle: saline with Tween-80
[5] = dose: 200.0 mg/kg/injection, schedule: Q01DX009 (ip), vehicle: saline with Tween-80
[6] = dose: 50.0 mg/kg/injection, schedule: Q01DX009 (ip), vehicle: Klucel (hydroxypropylcellulose) (HPC)

What does the source list for `CC(=O)C1=C(O)C2(O)C(=O)c3c(c(C)c4ccc(C)c(O)c4c3O)CC2C(N)C1=O` (configuration not stated)?
T/C (dose: 7.5 mg/kg/injection, schedule: Q01DX009 (ip), vehicle: saline + alcohol): 103 % of control and 107 % of control and 120 % of control; T/C (dose: 15.0 mg/kg/injection, schedule: Q01DX009 (ip), vehicle: saline + alcohol): 103 % of control; T/C (dose: 30.0 mg/kg/injection, schedule: Q01DX009 (ip), vehicle: saline + alcohol): 119 % of control; T/C (dose: 50.0 mg/kg/injection, schedule: Q04DX003 (ip), vehicle: saline with Tween-80): 111 % of control; T/C [1]: 111 % of control

With `COC1=CCC2=C(CCN(C)C2Cc2ccc(OC)cc2)C1` (configuration not stated) as the compound, how does the T/C (dose: 12.5 mg/kg/injection, schedule: Q01DX005 (ip), vehicle: Klucel (hydroxypropylcellulose) (HPC)) read?
Its T/C is 97 % of control.

And the T/C (dose: 25.0 mg/kg/injection, schedule: Q01DX005 (ip), vehicle: Klucel (hydroxypropylcellulose) (HPC))?
The T/C was 96 % of control.

What about the T/C [2] of the same compound?
Its T/C is 100 % of control.

With `Cc1nc(C)c(Cl)c(Cc2ncnc3ccccc23)n1` as the compound, how does the T/C (dose: 25.0 mg/kg/injection, schedule: Q01DX005 (ip), vehicle: saline with Tween-80) read?
The T/C was 106 % of control.

What about the T/C (dose: 50.0 mg/kg/injection, schedule: Q01DX005 (ip), vehicle: saline with Tween-80) of the same compound?
The T/C was 96 % of control.

And the T/C (dose: 100.0 mg/kg/injection, schedule: Q01DX005 (ip), vehicle: saline with Tween-80)?
Its T/C is 102 % of control.

With `CCCCCCCCCCCCCCCC(=O)OC(=O)CCCCCCCCCCCCCCC` as the compound, how does the T/C [3] read?
Its T/C is 100 % of control.

And the T/C [4]?
Its T/C is 95 % of control.

What about the T/C [5] of the same compound?
The T/C was 94 % of control.

`Cc1c2oc3c(C)ccc(C(=O)NCCCN4CCN(C)CC4)c3nc-2c(C(=O)NCCCN2CCN(C)CC2)c(N)c1=O` was tested. Which T/C (dose: 6.25 mg/kg/injection, schedule: Q04DX003 (ip), vehicle: saline with Tween-80) did it give?
The T/C was 106 % of control.

What about the T/C (dose: 12.5 mg/kg/injection, schedule: Q04DX003 (ip), vehicle: saline with Tween-80) of the same compound?
The T/C was 104 % of control.

And the T/C (dose: 25.0 mg/kg/injection, schedule: Q04DX003 (ip), vehicle: saline with Tween-80)?
Its T/C is 114 % of control and 117 % of control.

What about the T/C [1] of the same compound?
The T/C was 123 % of control.

`O=C1c2ccccc2C(O)(C(=O)O)C1(O)CC=C(Cl)Cl` (configuration not stated) was tested. Which T/C (dose: 12.5 mg/kg/injection, schedule: Q01DX009 (ip), vehicle: distilled water + Tween-80) did it give?
Its T/C is 103 % of control.

What about the T/C (dose: 25.0 mg/kg/injection, schedule: Q01DX009 (ip), vehicle: distilled water + Tween-80) of the same compound?
The T/C was 99 % of control.

What about the T/C (dose: 50.0 mg/kg/injection, schedule: Q01DX009 (ip), vehicle: distilled water + Tween-80) of the same compound?
Its T/C is 91 % of control.

What about the T/C (dose: 100.0 mg/kg/injection, schedule: Q01DX009 (ip), vehicle: distilled water + Tween-80) of the same compound?
The T/C was 95 % of control.

And the T/C (dose: 200.0 mg/kg/injection, schedule: Q01DX009 (ip), vehicle: distilled water + Tween-80)?
The T/C was 91 % of control.

Which results are given for `O=C(N=c1nc2ccccn2s1)c1ccccc1`?
T/C [3]: 100 % of control; T/C [4]: 98 % of control; T/C [5]: 104 % of control

Which results are given for `O=C1C=CC2(C=C1)CCN=C(c1cc3c(cc1Br)OCO3)O2`?
T/C (dose: 25.0 mg/kg/injection, schedule: Q04DX002 (ip), vehicle: saline): 102 % of control; T/C (dose: 50.0 mg/kg/injection, schedule: Q04DX002 (ip), vehicle: saline): 103 % of control; T/C (dose: 100.0 mg/kg/injection, schedule: Q04DX002 (ip), vehicle: saline with Tween-80): 108 % of control; T/C (dose: 100.0 mg/kg/injection, schedule: Q04DX002 (ip), vehicle: saline): 100 % of control

`COc1ccc2c(C)cc(N/N=C/c3ccc([N+](=O)[O-])o3)nc2c1` was tested. Which T/C [2] did it give?
Its T/C is 100 % of control.

What about the T/C (dose: 100.0 mg/kg/injection, schedule: Q01DX005 (ip), vehicle: Klucel (hydroxypropylcellulose) (HPC)) of the same compound?
The T/C was 101 % of control.

And the T/C (dose: 200.0 mg/kg/injection, schedule: Q01DX005 (ip), vehicle: Klucel (hydroxypropylcellulose) (HPC))?
The T/C was 90 % of control.

How did the T/C (dose: 60.0 mg/kg/injection, schedule: Q01DX005 (ip), vehicle: Klucel + Tween-80) turn out when `O=NN(Cc1ccc(Cl)cc1)C(C(=O)O)c1ccccc1` (configuration not stated) was run?
The T/C was 103 % of control.

What about the T/C (dose: 120.0 mg/kg/injection, schedule: Q01DX005 (ip), vehicle: Klucel + Tween-80) of the same compound?
The T/C was 103 % of control.

With `C(=NC12CC3CC(CC(C3)C1)C2)C12CC3CC(CC(C3)C1)C2` as the compound, how does the T/C [3] read?
Its T/C is 99 % of control.

And the T/C [4]?
Its T/C is 102 % of control.

And the T/C [5]?
Its T/C is 96 % of control.

Which results are given for `C1CNC(SC2(SC3=NCCN3)SC3(NCCN3)S2)=N1`?
T/C (dose: 50.75 mg/kg/injection, schedule: Q01DX001 (ip), vehicle: saline): 104 % of control; T/C (dose: 101.5 mg/kg/injection, schedule: Q01DX001 (ip), vehicle: saline): 99 % of control; T/C (dose: 203.0 mg/kg/injection, schedule: Q01DX001 (ip), vehicle: saline): 101 % of control

How did the T/C [1] turn out when `CCCCCCC(O)CCCCCCCCCCC(=O)O` (configuration not stated) was run?
Its T/C is 109 % of control.

And the T/C (dose: 200.0 mg/kg/injection, schedule: Q04DX003 (ip), vehicle: saline with Tween-80)?
The T/C was 100 % of control.

And the T/C (dose: 400.0 mg/kg/injection, schedule: Q04DX003 (ip), vehicle: saline with Tween-80)?
Its T/C is 104 % of control.

Which results are given for `O=C(O)C(Cc1ccc(O)cc1)NC(=O)C(F)(F)F` (configuration not stated)?
T/C [3]: 98 % of control and 100 % of control; T/C [4]: 93 % of control; T/C [5]: 90 % of control

`CN(C(=O)Nc1cccc2c(NC(=O)N(C)C3CCCCC3)cccc12)C1CCCCC1` was tested. Which T/C (dose: 60.0 mg/kg/injection, schedule: Q01DX005 (ip), vehicle: saline with Tween-80) did it give?
The T/C was 93 % of control.

What about the T/C (dose: 120.0 mg/kg/injection, schedule: Q01DX005 (ip), vehicle: saline with Tween-80) of the same compound?
Its T/C is 87 % of control.

What about the T/C (dose: 240.0 mg/kg/injection, schedule: Q01DX005 (ip), vehicle: saline with Tween-80) of the same compound?
The T/C was 90 % of control.

With `OC(CN1CCCCC1)c1ccc(/C=C/c2ccc(Cl)cc2)cc1` (configuration not stated) as the compound, how does the T/C (dose: 6.25 mg/kg/injection, schedule: Q01DX009 (ip), vehicle: saline) read?
The T/C was 100 % of control.

What about the T/C (dose: 12.5 mg/kg/injection, schedule: Q01DX009 (ip), vehicle: saline) of the same compound?
The T/C was 95 % of control.

And the T/C (dose: 25.0 mg/kg/injection, schedule: Q01DX009 (ip), vehicle: saline)?
Its T/C is 96 % of control.

Which T/C (dose: 14.5 mg/kg/injection, schedule: Q01DX005 (ip), vehicle: Klucel + Tween-80) does the source give for `C=C1CC(OC(C)=O)/C=C(/C)CCC(C(C)(C)O)CC1O` (configuration not stated) here?
Its T/C is 96 % of control.

And the T/C (dose: 29.0 mg/kg/injection, schedule: Q01DX005 (ip), vehicle: Klucel + Tween-80)?
The T/C was 96 % of control.

What about the T/C (dose: 58.0 mg/kg/injection, schedule: Q01DX005 (ip), vehicle: Klucel + Tween-80) of the same compound?
The T/C was 97 % of control.

What about the T/C (dose: 116.0 mg/kg/injection, schedule: Q01DX005 (ip), vehicle: Klucel + Tween-80) of the same compound?
The T/C was 100 % of control.

For `Nc1nnc2n(N)cnn12`, which T/C (dose: 100.0 mg/kg/injection, schedule: Q04DX002 (ip), vehicle: water) is on record?
The T/C was 114 % of control.

What about the T/C (dose: 200.0 mg/kg/injection, schedule: Q04DX002 (ip), vehicle: water) of the same compound?
Its T/C is 109 % of control.

And the T/C (dose: 400.0 mg/kg/injection, schedule: Q04DX002 (ip), vehicle: water)?
Its T/C is 106 % of control.

For `CCC1(O)CC(OC2CC(NC)C(OC3CC(O)C(OC4CC(O)C(O)C(C)O4)C(C)O3)C(C)O2)c2c(cc3c(c2O)C(=O)c2c(O)ccc(O)c2C3=O)C1C(=O)OC` (configuration not stated), which T/C (dose: 3.13 mg/kg/injection, schedule: Q04DX003 (ip), vehicle: Klucel (hydroxypropylcellulose) (HPC)) is on record?
Its T/C is 115 % of control.

What about the T/C (dose: 6.25 mg/kg/injection, schedule: Q04DX003 (ip), vehicle: Klucel (hydroxypropylcellulose) (HPC)) of the same compound?
Its T/C is 118 % of control.

What about the T/C (dose: 12.5 mg/kg/injection, schedule: Q04DX003 (ip), vehicle: Klucel (hydroxypropylcellulose) (HPC)) of the same compound?
The T/C was 115 % of control.

For `CCOC(=O)C(Cc1ccc(N(CCCl)CCCl)cc1)NC(=O)C(N)CCC(=O)O` (configuration not stated), which T/C (dose: 5.0 mg/kg/injection, schedule: Q04DX003 (ip), vehicle: water) is on record?
The T/C was 166 % of control.

What about the T/C (dose: 6.25 mg/kg/injection, schedule: Q01DX009 (ip), vehicle: Klucel (hydroxypropylcellulose) (HPC)) of the same compound?
The T/C was 169 % of control.

And the T/C (dose: 10.0 mg/kg/injection, schedule: Q04DX003 (ip), vehicle: water)?
The T/C was 161 % of control and 196 % of control.

What about the T/C (dose: 12.5 mg/kg/injection, schedule: Q01DX009 (ip), vehicle: Klucel (hydroxypropylcellulose) (HPC)) of the same compound?
Its T/C is 202 % of control and 247 % of control.

What about the T/C (dose: 20.0 mg/kg/injection, schedule: Q04DX003 (ip), vehicle: water) of the same compound?
Its T/C is 233 % of control and 321 % of control.

What about the T/C (dose: 25.0 mg/kg/injection, schedule: Q01DX009 (ip), vehicle: Klucel (hydroxypropylcellulose) (HPC)) of the same compound?
Its T/C is 196 % of control.

What about the T/C (dose: 40.0 mg/kg/injection, schedule: Q04DX003 (ip), vehicle: water) of the same compound?
Its T/C is 122 % of control and 348 % of control.

And the T/C [6]?
Its T/C is 92 % of control.

Which results are given for `O=Cc1ccc(S(=O)(=O)F)cc1`?
T/C [6]: 99 % of control; T/C (dose: 100.0 mg/kg/injection, schedule: Q01DX009 (ip), vehicle: Klucel (hydroxypropylcellulose) (HPC)): 97 % of control; T/C (dose: 200.0 mg/kg/injection, schedule: Q01DX009 (ip), vehicle: Klucel (hydroxypropylcellulose) (HPC)): 93 % of control

`COC(=O)C1=NNc2ccccc2C(OC(C)=O)C1C` (configuration not stated) was tested. Which T/C (dose: 100.0 mg/kg/injection, schedule: Q01DX001 (ip), vehicle: saline with Tween-80) did it give?
The T/C was 90 % of control.

What about the T/C (dose: 200.0 mg/kg/injection, schedule: Q01DX001 (ip), vehicle: saline with Tween-80) of the same compound?
Its T/C is 96 % of control.

And the T/C (dose: 400.0 mg/kg/injection, schedule: Q01DX001 (ip), vehicle: saline with Tween-80)?
The T/C was 97 % of control.
